# From patent US9738634B2, “Heterocyclic amide compound and herbicide” (SYNGENTA PARTICIPATIONS AG, priority 2013, dated 2017)
# Columns and labels:
# Type in all cases: in vivo
# Details in all cases: treatment dosage 320 g/ha
# [1] = tested on: barnyard grass; assay: Test Example 1: weedkilling efficacy, preemergent weed treatment in the submerged state; A: barnyard grass
# In short: (§1)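 Pots of alluvial soil flooded 4 cm deep, sown with barnyard grass, bulrush and oval-leafed pondweed and transplanted with 2.5-leaf rice. Emulsified compound applied to the water surface on sowing day at stated g/ha; greenhouse 25–30 °C, effects assessed 3 weeks after treatment.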
# [2] = tested on: bulrush; assay: Test Example 1: weedkilling efficacy, preemergent weed treatment in the submerged state; B: bulrush
# In short: as §1
# [3] = tested on: oval-leafed pondweed; assay: Test Example 1: weedkilling efficacy, preemergent weed treatment in the submerged state; C: oval-leafed pondweed
# In short: as §1
# [4] = tested on: transplanted rice; assay: Test Example 1: preemergent weed treatment in the submerged state, effect on crop; a: transplanted rice
# In short: as §1
# [5] = tested on: barnyard grass; assay: Test Example 2: weedkilling efficacy, growth period weed treatment in the submerged state; A: barnyard grass
# In short: (§2)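 Barnyard grass, bulrush and oval-leafed pondweed sown in alluvial soil under 4 cm flooding, greenhouse 25 to 30° C. At 1-2 leaf stage, water-diluted emulsion applied to the water surface at stated g/ha dosages; effects scored 3 weeks later.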
# [6] = tested on: bulrush; assay: Test Example 2: weedkilling efficacy, growth period weed treatment in the submerged state; B: bulrush
# In short: as §2
# [7] = tested on: oval-leafed pondweed; assay: Test Example 2: weedkilling efficacy, growth period weed treatment in the submerged state; C: oval-leafed pondweed
# In short: as §2
# [8] = tested on: crabgrass; assay: Test Example 3: weedkilling efficacy through soil treatment; D: crabgrass
# In short: (§3)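 Crop and weed responses were judged three weeks after a uniform surface spray of the water-diluted emulsion at the given g/ha rate. Seeds sat beneath about 1.5 cm of sterilized diluvial soil, and boxes stood in a greenhouse at 25 to 30° C.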
# [9] = tested on: green foxtail; assay: Test Example 3: weedkilling efficacy through soil treatment; E: green foxtail
# In short: as §3
# [10] = tested on: barnyard grass; assay: Test Example 3: weedkilling efficacy through soil treatment; F: barnyard grass
# In short: as §3
# [11] = tested on: wild oat; assay: Test Example 3: weedkilling efficacy through soil treatment; G: wild oat
# In short: as §3
# [12] = tested on: black-grass; assay: Test Example 3: weedkilling efficacy through soil treatment; H: black-grass
# In short: as §3
# [13] = tested on: Italian ryegrass; assay: Test Example 3: weedkilling efficacy through soil treatment; I: Italian ryegrass
# In short: as §3
# [14] = tested on: common wind-grass; assay: Test Example 3: weedkilling efficacy through soil treatment; J: common wind-grass
# In short: as §3
# [15] = tested on: Indian mallow; assay: Test Example 3: weedkilling efficacy through soil treatment; K: Indian mallow
# In short: as §3
# [16] = tested on: redroot pigweed; assay: Test Example 3: weedkilling efficacy through soil treatment; L: redroot pigweed
# In short: as §3
# [17] = tested on: fig-leafed goosefoot; assay: Test Example 3: weedkilling efficacy through soil treatment; M: fig-leafed goosefoot
# In short: as §3
# [18] = tested on: chickweed; assay: Test Example 3: weedkilling efficacy through soil treatment; N: chickweed
# In short: as §3
# [19] = tested on: directly sown rice; assay: Test Example 3: soil treatment, effect on crop; b: directly sown rice
# In short: as §3
# [20] = tested on: corn; assay: Test Example 3: soil treatment, effect on crop; c: corn
# In short: as §3
# [21] = tested on: soybean; assay: Test Example 3: soil treatment, effect on crop; d: soybean
# In short: as §3
# [22] = tested on: wheat; assay: Test Example 3: soil treatment, effect on crop; e: wheat
# In short: as §3
# [23] = tested on: beet; assay: Test Example 3: soil treatment, effect on crop; f: beet
# In short: as §3
# [24] = tested on: rapeseed; assay: Test Example 3: soil treatment, effect on crop; g: rapeseed
# In short: as §3
# [25] = tested on: crabgrass; assay: Test Example 4: weedkilling efficacy by foliar treatment; D: crabgrass
# In short: (§4)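 Seeds are spot-sown into sterilized diluvial soil and covered with about 1.5 cm of soil. After 14 days' greenhouse growth at 25 to 30° C, plants are sprayed on stems and leaves with diluted emulsion at the stated g/ha rate, then scored at 3 weeks.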
# [26] = tested on: green foxtail; assay: Test Example 4: weedkilling efficacy by foliar treatment; E: green foxtail
# In short: as §4
# [27] = tested on: barnyard grass; assay: Test Example 4: weedkilling efficacy by foliar treatment; F: barnyard grass
# In short: as §4
# [28] = tested on: wild oat; assay: Test Example 4: weedkilling efficacy by foliar treatment; G: wild oat
# In short: as §4
# [29] = tested on: black-grass; assay: Test Example 4: weedkilling efficacy by foliar treatment; H: black-grass
# In short: as §4
# [30] = tested on: Italian ryegrass; assay: Test Example 4: weedkilling efficacy by foliar treatment; I: Italian ryegrass
# In short: as §4
# [31] = tested on: common wind-grass; assay: Test Example 4: weedkilling efficacy by foliar treatment; J: common wind-grass
# In short: as §4
# [32] = tested on: Indian mallow; assay: Test Example 4: weedkilling efficacy by foliar treatment; K: Indian mallow
# In short: as §4
# [33] = tested on: redroot pigweed; assay: Test Example 4: weedkilling efficacy by foliar treatment; L: redroot pigweed
# In short: as §4
# [34] = tested on: fig-leafed goosefoot; assay: Test Example 4: weedkilling efficacy by foliar treatment; M: fig-leafed goosefoot
# In short: as §4
# [35] = tested on: chickweed; assay: Test Example 4: weedkilling efficacy by foliar treatment; N: chickweed
# In short: as §4
# [36] = tested on: catchweed; assay: Test Example 4: weedkilling efficacy by foliar treatment; O: catchweed
# In short: as §4
# [37] = tested on: birds-eye speedwell; assay: Test Example 4: weedkilling efficacy by foliar treatment; p: birds-eye speedwell
# In short: as §4
# [38] = tested on: directly sown rice; assay: Test Example 4: foliar treatment, effect on crop; b: directly sown rice
# In short: as §4
# [39] = tested on: corn; assay: Test Example 4: foliar treatment, effect on crop; c: corn
# In short: as §4
# [40] = tested on: soybean; assay: Test Example 4: foliar treatment, effect on crop; d: soybean
# In short: as §4
# [41] = tested on: wheat; assay: Test Example 4: foliar treatment, effect on crop; e: wheat
# In short: as §4
# [42] = tested on: beet; assay: Test Example 4: foliar treatment, effect on crop; f: beet
# In short: as §4
# [43] = tested on: rapeseed; assay: Test Example 4: foliar treatment, effect on crop; g: rapeseed
# In short: as §4
compound,measurement,setting,value
CC1=C(c2cccnc2F)C(=O)N(C(C)(C)C(=O)Nc2cc(C(F)(F)F)cc(F)n2)CO1 [B-2-13],A (barnyard grass) weedkilling efficacy grade,[1],"5 (weed kill ratio 90% or more, (practically complete withering))"
same,B (bulrush) weedkilling efficacy grade,[2],"5 (weed kill ratio 90% or more, (practically complete withering))"
same,C (oval-leafed pondweed) weedkilling efficacy grade,[3],"5 (weed kill ratio 90% or more, (practically complete withering))"
same,a (transplanted rice) effect on crop grade,[4],"1 (weed kill ratio 5% or more, less than 20%)"
same,A (barnyard grass) weedkilling efficacy grade,[5],"5 (weed kill ratio 90% or more, (practically complete withering))"
same,B (bulrush) weedkilling efficacy grade,[6],"5 (weed kill ratio 90% or more, (practically complete withering))"
same,C (oval-leafed pondweed) weedkilling efficacy grade,[7],"5 (weed kill ratio 90% or more, (practically complete withering))"
same,D (crabgrass) weedkilling efficacy grade,[8],"5 (weed kill ratio 90% or more, (practically complete withering))"
same,E (green foxtail) weedkilling efficacy grade,[9],"5 (weed kill ratio 90% or more, (practically complete withering))"
same,F (barnyard grass) weedkilling efficacy grade,[10],"5 (weed kill ratio 90% or more, (practically complete withering))"
same,G (wild oat) weedkilling efficacy grade,[11],"5 (weed kill ratio 90% or more, (practically complete withering))"
same,H (black-grass) weedkilling efficacy grade,[12],"5 (weed kill ratio 90% or more, (practically complete withering))"
same,I (Italian ryegrass) weedkilling efficacy grade,[13],"5 (weed kill ratio 90% or more, (practically complete withering))"
same,J (common wind-grass) weedkilling efficacy grade,[14],"5 (weed kill ratio 90% or more, (practically complete withering))"
same,K (Indian mallow) weedkilling efficacy grade,[15],0 (weed kill ratio 5% or less (practically no effect))
same,L (redroot pigweed) weedkilling efficacy grade,[16],"4 (weed kill ratio 70% or more, less than 90%)"
same,M (fig-leafed goosefoot) weedkilling efficacy grade,[17],"3 (weed kill ratio 40% or more, less than 70%)"
same,N (chickweed) weedkilling efficacy grade,[18],"3 (weed kill ratio 40% or more, less than 70%)"
same,b (directly sown rice) effect on crop grade,[19],"5 (weed kill ratio 90% or more, (practically complete withering))"
same,c (corn) effect on crop grade,[20],"1 (weed kill ratio 5% or more, less than 20%)"
same,d (soybean) effect on crop grade,[21],0 (weed kill ratio 5% or less (practically no effect))
same,e (wheat) effect on crop grade,[22],0 (weed kill ratio 5% or less (practically no effect))
same,f (beet) effect on crop grade,[23],"4 (weed kill ratio 70% or more, less than 90%)"
same,g (rapeseed) effect on crop grade,[24],"4 (weed kill ratio 70% or more, less than 90%)"
same,D (crabgrass) weedkilling efficacy grade,[25],"5 (weed kill ratio 90% or more, (practically complete withering))"
same,E (green foxtail) weedkilling efficacy grade,[26],"5 (weed kill ratio 90% or more, (practically complete withering))"
same,F (barnyard grass) weedkilling efficacy grade,[27],"5 (weed kill ratio 90% or more, (practically complete withering))"
same,G (wild oat) weedkilling efficacy grade,[28],"3 (weed kill ratio 40% or more, less than 70%)"
same,H (black-grass) weedkilling efficacy grade,[29],"5 (weed kill ratio 90% or more, (practically complete withering))"
same,I (Italian ryegrass) weedkilling efficacy grade,[30],"5 (weed kill ratio 90% or more, (practically complete withering))"
same,J (common wind-grass) weedkilling efficacy grade,[31],"5 (weed kill ratio 90% or more, (practically complete withering))"
same,K (Indian mallow) weedkilling efficacy grade,[32],"5 (weed kill ratio 90% or more, (practically complete withering))"
same,L (redroot pigweed) weedkilling efficacy grade,[33],"4 (weed kill ratio 70% or more, less than 90%)"
same,M (fig-leafed goosefoot) weedkilling efficacy grade,[34],"4 (weed kill ratio 70% or more, less than 90%)"
same,N (chickweed) weedkilling efficacy grade,[35],"4 (weed kill ratio 70% or more, less than 90%)"
same,O (catchweed) weedkilling efficacy grade,[36],"5 (weed kill ratio 90% or more, (practically complete withering))"
same,P (birds-eye speedwell) weedkilling efficacy grade,[37],"5 (weed kill ratio 90% or more, (practically complete withering))"
same,b (directly sown rice) effect on crop grade,[38],"3 (weed kill ratio 40% or more, less than 70%)"
same,c (corn) effect on crop grade,[39],"4 (weed kill ratio 70% or more, less than 90%)"
same,d (soybean) effect on crop grade,[40],"4 (weed kill ratio 70% or more, less than 90%)"
same,e (wheat) effect on crop grade,[41],0 (weed kill ratio 5% or less (practically no effect))
same,f (beet) effect on crop grade,[42],"4 (weed kill ratio 70% or more, less than 90%)"
same,g (rapeseed) effect on crop grade,[43],"4 (weed kill ratio 70% or more, less than 90%)"
